In experiment [1] the target is T1, Son of sevenless homolog 1 (Homo sapiens, UniProt Q07889).
T1 sequence (Q07889 whole entry): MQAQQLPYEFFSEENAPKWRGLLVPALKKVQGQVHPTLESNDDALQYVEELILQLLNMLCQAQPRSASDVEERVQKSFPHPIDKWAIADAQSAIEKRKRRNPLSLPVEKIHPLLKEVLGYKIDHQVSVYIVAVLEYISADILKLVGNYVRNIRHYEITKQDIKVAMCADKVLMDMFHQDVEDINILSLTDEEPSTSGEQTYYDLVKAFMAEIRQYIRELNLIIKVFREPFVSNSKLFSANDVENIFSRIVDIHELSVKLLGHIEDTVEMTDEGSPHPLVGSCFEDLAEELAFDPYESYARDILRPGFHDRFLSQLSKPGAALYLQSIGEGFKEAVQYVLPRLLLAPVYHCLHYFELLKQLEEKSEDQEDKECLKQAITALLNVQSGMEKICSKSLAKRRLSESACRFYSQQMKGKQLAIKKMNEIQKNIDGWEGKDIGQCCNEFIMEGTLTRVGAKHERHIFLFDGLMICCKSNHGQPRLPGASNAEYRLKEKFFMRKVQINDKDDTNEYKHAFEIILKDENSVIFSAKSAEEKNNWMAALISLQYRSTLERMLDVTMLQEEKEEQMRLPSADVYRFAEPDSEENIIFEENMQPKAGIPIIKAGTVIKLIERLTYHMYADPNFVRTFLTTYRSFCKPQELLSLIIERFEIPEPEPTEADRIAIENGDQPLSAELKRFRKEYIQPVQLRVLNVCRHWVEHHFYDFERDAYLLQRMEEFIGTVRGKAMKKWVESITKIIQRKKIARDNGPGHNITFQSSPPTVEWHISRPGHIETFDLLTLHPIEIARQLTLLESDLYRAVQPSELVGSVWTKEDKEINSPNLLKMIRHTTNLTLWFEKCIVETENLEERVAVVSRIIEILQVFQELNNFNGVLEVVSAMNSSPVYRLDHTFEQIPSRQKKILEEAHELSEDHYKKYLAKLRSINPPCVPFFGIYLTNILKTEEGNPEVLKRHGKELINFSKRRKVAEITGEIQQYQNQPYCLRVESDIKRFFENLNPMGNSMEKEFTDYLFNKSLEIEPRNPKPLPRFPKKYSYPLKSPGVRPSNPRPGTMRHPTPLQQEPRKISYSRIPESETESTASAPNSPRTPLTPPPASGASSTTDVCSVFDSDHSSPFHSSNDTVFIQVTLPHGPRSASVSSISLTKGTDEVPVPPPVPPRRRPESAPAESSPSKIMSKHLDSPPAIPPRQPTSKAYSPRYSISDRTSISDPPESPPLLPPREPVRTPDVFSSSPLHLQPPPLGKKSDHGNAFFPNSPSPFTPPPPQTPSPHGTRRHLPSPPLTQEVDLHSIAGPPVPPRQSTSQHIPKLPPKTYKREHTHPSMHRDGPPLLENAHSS
The experiment in a line: Inhibition of N-terminal His10-tagged wild-type recombinant human SOS1 catalytic domain (564 to 1049 residues) expressed in Escherichia coli assessed as reduction in wild-type KRAS activation preincubated for 10 mins with KRAS followed by SOS1 addition measured after 30 mins in presence of EDA-GTP-DY-647P1 by HTRF analysis. For orientation: TR-FRET usually uses a lanthanide donor and a delayed reading to cut background.

In experiment [2] the target is Proto-oncogene tyrosine-protein kinase receptor Ret (Homo sapiens) (UniProt P07949). The experiment in a line: Inhibition of RET (unknown origin) assessed as residual activity at 100 nM by KINOMEscan analysis relative to control.
The target of experiment [3] is Phosphatidylinositol 4-kinase beta (Homo sapiens) (UniProt Q9UBF8). Briefly: Inhibition of PIK4CB (unknown origin) assessed as residual activity at 100 nM by KINOMEscan analysis relative to control.
Experiment [4] concerns the target Dual specificity protein kinase CLK3 (Homo sapiens) (UniProt P49761). Briefly: Inhibition of CLK3 (unknown origin) assessed as residual activity at 100 nM by KINOMEscan analysis relative to control.
The target of experiment [5] is Tyrosine-protein kinase Lck (Homo sapiens) (UniProt P06239). The experiment in a line: Inhibition of LCK (unknown origin) assessed as residual activity at 100 nM by KINOMEscan analysis relative to control.
In experiment [6] the target is T2, Mitogen-activated protein kinase kinase kinase 6 (Homo sapiens) (UniProt O95382).
T2 sequence (whole entry): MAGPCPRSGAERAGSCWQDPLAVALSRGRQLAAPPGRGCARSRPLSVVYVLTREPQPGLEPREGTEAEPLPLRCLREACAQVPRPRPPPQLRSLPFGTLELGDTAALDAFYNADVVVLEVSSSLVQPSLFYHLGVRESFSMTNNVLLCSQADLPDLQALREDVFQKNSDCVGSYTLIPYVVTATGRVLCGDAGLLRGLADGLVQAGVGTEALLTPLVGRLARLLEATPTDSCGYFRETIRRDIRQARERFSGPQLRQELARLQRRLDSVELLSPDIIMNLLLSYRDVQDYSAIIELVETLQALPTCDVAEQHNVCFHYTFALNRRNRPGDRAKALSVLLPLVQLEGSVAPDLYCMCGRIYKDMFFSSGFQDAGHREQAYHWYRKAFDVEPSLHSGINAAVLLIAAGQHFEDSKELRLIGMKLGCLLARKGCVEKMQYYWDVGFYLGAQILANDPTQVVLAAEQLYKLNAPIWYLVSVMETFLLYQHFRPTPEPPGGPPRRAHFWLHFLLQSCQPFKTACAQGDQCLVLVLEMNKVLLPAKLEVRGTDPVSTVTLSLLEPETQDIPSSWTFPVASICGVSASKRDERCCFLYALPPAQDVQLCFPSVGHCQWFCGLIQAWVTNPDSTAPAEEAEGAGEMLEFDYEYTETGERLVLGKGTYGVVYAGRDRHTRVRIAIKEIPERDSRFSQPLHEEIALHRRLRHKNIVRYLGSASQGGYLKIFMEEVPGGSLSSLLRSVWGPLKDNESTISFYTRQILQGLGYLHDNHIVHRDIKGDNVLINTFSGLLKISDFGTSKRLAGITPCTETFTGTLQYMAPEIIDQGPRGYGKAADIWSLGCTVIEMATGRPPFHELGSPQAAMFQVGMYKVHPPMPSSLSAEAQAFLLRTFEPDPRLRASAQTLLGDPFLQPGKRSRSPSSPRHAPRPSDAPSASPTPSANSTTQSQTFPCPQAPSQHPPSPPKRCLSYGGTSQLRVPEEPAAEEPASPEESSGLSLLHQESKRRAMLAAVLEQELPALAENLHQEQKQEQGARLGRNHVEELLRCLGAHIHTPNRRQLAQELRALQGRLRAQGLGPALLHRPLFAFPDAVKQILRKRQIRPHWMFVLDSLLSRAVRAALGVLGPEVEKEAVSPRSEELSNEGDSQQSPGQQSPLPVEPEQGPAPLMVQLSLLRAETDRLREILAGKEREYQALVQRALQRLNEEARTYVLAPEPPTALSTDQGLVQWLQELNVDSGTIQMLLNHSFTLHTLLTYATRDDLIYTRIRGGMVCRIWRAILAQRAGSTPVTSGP
The experiment in a line: Inhibition of ASK2 (unknown origin) assessed as residual activity at 100 nM by KINOMEscan analysis relative to control.

Sequence of Dual specificity protein kinase CLK3 (Homo sapiens) (P49761 whole entry, looked up): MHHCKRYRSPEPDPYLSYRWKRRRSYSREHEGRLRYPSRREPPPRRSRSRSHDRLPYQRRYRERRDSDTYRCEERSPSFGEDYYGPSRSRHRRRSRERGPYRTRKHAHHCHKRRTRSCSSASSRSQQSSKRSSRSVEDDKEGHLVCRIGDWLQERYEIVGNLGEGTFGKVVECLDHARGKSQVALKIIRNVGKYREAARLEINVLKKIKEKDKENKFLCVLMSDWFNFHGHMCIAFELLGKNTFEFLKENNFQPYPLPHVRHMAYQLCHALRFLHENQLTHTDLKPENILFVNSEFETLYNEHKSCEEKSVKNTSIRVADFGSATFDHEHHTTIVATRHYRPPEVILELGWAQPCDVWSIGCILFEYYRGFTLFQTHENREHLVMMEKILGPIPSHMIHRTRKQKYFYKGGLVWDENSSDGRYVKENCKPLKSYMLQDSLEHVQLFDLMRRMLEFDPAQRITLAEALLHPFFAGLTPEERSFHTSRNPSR
Sequence of Proto-oncogene tyrosine-protein kinase receptor Ret (Homo sapiens) (P07949 whole entry): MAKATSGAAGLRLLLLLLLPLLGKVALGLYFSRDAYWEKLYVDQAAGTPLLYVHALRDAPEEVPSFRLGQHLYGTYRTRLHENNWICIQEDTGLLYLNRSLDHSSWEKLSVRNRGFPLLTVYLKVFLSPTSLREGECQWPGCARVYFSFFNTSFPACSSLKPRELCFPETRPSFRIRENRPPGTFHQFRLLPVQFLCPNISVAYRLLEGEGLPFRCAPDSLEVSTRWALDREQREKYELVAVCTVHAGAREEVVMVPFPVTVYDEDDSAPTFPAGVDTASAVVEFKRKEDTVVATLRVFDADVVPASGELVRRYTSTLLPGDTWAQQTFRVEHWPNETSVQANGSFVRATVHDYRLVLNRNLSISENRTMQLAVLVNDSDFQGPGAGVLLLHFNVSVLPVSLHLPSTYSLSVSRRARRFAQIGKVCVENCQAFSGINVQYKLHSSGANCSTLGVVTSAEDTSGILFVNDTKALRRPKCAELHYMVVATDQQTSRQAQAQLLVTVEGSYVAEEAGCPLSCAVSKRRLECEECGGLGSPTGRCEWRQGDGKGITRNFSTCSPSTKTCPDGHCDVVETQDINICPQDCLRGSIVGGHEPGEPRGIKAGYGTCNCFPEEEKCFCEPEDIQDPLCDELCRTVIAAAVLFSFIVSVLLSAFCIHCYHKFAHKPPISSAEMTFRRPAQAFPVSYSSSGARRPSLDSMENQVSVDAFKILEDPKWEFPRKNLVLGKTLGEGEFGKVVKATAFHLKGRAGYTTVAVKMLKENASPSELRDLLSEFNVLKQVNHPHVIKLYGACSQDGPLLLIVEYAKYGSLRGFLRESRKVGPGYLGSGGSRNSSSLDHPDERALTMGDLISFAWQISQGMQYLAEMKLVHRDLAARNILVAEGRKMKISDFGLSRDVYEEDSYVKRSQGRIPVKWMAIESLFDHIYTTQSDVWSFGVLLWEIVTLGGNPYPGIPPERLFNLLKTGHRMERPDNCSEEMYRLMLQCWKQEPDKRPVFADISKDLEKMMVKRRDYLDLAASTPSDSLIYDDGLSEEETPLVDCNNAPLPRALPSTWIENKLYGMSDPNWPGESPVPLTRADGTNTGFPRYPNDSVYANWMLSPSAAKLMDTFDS
Sequence of Tyrosine-protein kinase Lck (Homo sapiens) (P06239 2-509 limits assumed): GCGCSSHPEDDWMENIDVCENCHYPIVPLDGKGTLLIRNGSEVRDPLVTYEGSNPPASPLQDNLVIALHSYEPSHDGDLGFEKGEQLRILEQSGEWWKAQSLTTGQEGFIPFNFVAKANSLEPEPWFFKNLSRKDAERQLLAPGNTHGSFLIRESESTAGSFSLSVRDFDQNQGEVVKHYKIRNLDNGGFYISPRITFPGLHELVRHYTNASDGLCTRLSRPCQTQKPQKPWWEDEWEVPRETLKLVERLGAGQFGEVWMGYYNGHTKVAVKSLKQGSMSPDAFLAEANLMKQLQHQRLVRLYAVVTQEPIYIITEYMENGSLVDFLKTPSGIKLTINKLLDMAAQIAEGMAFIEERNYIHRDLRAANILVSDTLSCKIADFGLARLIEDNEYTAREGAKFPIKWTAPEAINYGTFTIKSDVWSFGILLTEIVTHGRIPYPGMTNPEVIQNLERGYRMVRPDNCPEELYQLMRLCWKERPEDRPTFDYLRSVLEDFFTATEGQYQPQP
Sequence of Phosphatidylinositol 4-kinase beta (Homo sapiens) (Q9UBF8 2-816 limits assumed): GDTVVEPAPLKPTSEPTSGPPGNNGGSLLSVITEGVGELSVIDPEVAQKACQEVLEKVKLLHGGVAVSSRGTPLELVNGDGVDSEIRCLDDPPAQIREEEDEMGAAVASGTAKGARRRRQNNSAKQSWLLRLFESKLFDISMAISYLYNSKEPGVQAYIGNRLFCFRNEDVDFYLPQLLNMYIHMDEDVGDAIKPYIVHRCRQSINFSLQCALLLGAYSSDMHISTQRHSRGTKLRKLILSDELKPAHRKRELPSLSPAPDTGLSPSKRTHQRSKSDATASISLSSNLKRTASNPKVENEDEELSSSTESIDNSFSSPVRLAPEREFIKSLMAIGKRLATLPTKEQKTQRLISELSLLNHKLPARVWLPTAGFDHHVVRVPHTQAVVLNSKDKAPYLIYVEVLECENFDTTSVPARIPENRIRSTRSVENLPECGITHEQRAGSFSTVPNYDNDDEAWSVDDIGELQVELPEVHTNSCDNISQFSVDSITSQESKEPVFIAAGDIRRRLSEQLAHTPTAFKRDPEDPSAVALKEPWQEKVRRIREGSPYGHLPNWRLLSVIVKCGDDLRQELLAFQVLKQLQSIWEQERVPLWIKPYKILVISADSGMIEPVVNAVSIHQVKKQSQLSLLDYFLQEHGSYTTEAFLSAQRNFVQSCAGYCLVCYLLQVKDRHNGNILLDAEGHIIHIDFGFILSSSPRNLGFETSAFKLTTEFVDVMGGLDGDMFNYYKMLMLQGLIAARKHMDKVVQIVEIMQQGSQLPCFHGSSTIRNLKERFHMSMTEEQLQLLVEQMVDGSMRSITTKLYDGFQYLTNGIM

For orientation: IC50 means the concentration at which inhibition is half-maximal. In the case of `COc1cc2nc(C)nc(NC(C)c3ccc(-c4cnc5n4CCC5)s3)c2cc1OC` (stereo unspecified), in experiment [1], the IC50 was 550 nM.

With `COc1cc2ncnc(N[C@H](C)c3cccc4ccccc34)c2cc1OC`, the Activity worked out at 86% in experiment [2]; 83% in experiment [3]; 92% in experiment [4]; 100% in experiment [5]; 71% in experiment [6].

Values taken from ChEMBL document CHEMBL5678818, “Discovery of potent SOS1 inhibitors that block RAS activation via disruption of the RAS-SOS1 interaction” (Proc Natl Acad Sci U S A, 2019).
